Source: PMC3707170, “Polyketides from a Marine-Derived Fungus Xylariaceae sp” (Marine Drugs, 2013)
Values after ≈ are worked out from the molar mass of the structure shown. Where two headings read alike, the source gives them in different places.

Assays:
cathepsin B = biological target: T1, cathepsin B (Homo sapiens, UniProt P07858); experiment: Cathepsin B activity assay (fluorogenic Z-Arg-Arg-AMC substrate); type: biochemical; conditions: cathepsin B from human liver; read-out: IC50, inhibitory activity towards cathepsin B
T1 construct: cathepsin B from human liver (Sigma); purchased Sigma; host or cells: human liver (tissue-purified)
Description: (§1) Enzyme-inhibitory activity assays were tested according to literatures reported.
Figure S32. IR spectrum of 8-methoxy-1-naphthyl-1-(6′-O-acetyl)-α-glucopyranoside (10).
S1. Enzyme Inhibitory Assay
S1.1. Cathepsin B Activity Assay
The assay was performed in 96-well plate according to a published method with modification.
Brifely, 50 μL reaction buffer (100 mM sodium acetate (pH 5.5), 1 mM EDTA, 4 mM dithiothreitol) containing 0.0025 unit of cathepsin B from human liver (Sigma, one unit will liberate 1 nanomole of 7-amino-4-methylcoumarin from Z-Arg-Arg 7-amido-4-methylcoumarin per min at pH 6.0 at 40 °C) and 2 μL test compounds dissolved in DMSO were added to each well of a 96-well plate. After preincubation for 15 min at room temperature, 50 μL of reaction buffer containing 100 μM Z-Arg-Arg-7-amido-4-methylcoumarin (Sigma) was added and incubated for 30 min at room temperature.
Fluorescence was measured using a microplate reader (Wallac 1420 Victor 2, PerkinElmer, HolIand) with an excitation of 355 nm and emission at 460 nm.
His-taged human IMPDH П was recombinantly expressed in Escherichia coli and purified by Ni-NTA affinity chromotagraphy as described previously. The IMPDH activity assay was performed in 200-μL assay volume of 96-well plate. Briefly, 2 μL of test compound (dissolved in DMSO) or DMSO and 150 μL enzyme buffer containing 100 mM KH2PO4, 0.5 mM EDTA pH 8, and 2 mM dithiothreitol and 50 nM IMPDH were added into the plate and incubated at 37 °C for 15 min. The reaction was initiated by adding 50 μL reaction buffer containing a final concentration of 200 μM inosine 5-monophosphate (Sigma) and 200 μM NAD (Sigma). The OD was read at 340 nm after incubation at 37 °C for 30 min with a microplate reader (Wallac 1420 Victor 2, PerkinElmer, HolIand).
(1 picture or pasted object on this page, not shown here)

IMPDH = biological target: T2, IMPDH (Homo sapiens, UniProt P12268); experiment: IMPDH enzyme assay (OD at 340 nm); type: biochemical; conditions: recombinant human IMPDH II; read-out: IC50, inhibitory activity towards IMPDH
T2 construct: His tag; made in house; host or cells: Escherichia coli

Bugula neritina larvae = experiment: Larval settlement (antifouling) bioassay; conditions: for LC50/EC50: B. neritina larvae, ratio of lethal to settlement-inhibiting concentration; for EC50: Bugula neritina, 1 h, read-out: EC50, antifouling activity against B. neritina larvae settlement
Description: Larval culture and larval settlement assays matched the method reported in reference. […]
(§2) S2. Larval Settlement Bioassays
(§3) Antifouling activity of compounds was evaluated in settlement inhibition assays with laboratory-reared B. neritina larvae. Larval settlement bioassays were performed using sterile 24-well polystyrene plates as previously reported. Briefly, the stock solution of tested samples in DMSO was diluted with autoclaved filtered sea water (FSW) to concentrations ranging from 1 to 300 ppm. Then the EC50 and LC50 values of active compounds were calculated. In this way, about 20 competent larvae were added to each well in 1 mL of the test solution. Wells containing only FSW with DMSO served as the controls.
(§4) Three replicates of each treatment were used. The plates were incubated at 27 °C for 1 h. The percentage of larval settlement was determined by counting the settled, live individuals under a dissecting microscope and expressing the result as a proportion of the total number of larvae in the well. EC50 (inhibits 50% of settlement of B. neritina larvae in comparison with the control) and LC50 (refers to the concentration that kills 50% of the test organisms in comparison with the control) levels of active compounds were calculated by using the Excel software program.

SHP2 = biological target: T3, SHP2 (Homo sapiens, UniProt Q06124); experiment: SHP2 activity assay (pNPP substrate); type: biochemical; conditions: human recombinant enzyme, read-out: IC50, inhibitory activity towards SHP2
T3 construct: made in house; host or cells: E. coli
T3 sequence (Q06124 1-593): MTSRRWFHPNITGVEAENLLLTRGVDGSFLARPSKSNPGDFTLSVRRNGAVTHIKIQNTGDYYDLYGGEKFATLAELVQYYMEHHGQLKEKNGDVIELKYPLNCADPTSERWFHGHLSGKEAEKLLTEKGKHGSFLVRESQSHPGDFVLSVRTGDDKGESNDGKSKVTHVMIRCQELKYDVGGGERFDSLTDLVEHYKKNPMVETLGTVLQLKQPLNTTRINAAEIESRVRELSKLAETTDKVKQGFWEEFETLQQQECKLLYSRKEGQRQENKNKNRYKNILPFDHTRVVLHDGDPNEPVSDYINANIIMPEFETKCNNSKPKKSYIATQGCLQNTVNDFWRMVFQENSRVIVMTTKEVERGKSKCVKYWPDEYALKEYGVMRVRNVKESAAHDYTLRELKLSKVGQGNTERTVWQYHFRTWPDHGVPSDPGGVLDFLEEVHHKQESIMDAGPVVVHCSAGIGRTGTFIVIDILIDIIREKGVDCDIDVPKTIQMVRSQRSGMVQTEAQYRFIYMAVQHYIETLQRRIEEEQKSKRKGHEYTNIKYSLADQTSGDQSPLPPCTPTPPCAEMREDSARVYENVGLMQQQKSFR
Description: as §1
S1.3. PTP1B and SHP2 Activity Assays
Human recombinant PTP1B and SHP2 were expressed in E. coli and purifed by Ni-NTA affinity chromotagraphy in our laboratory, respectively. The enzyme activity was measured using p-nitrophenyl phosphate (pNPP) as substrate in a 96-well plate. Brifely, purified recombinant PTP1B or SHP2 (0.05 μg) in 50 μL buffer containing 50 mM citrate (pH 6.0), 0.1 M NaCl, 1 mM EDTA, and 1 mM dithiothreitol (DTT) and test compounds were added to each well of a 96-well plate. After preincubation for 15 min at room temperature, 50 μL of reaction buffer containing 2 mM pNPP was added and incubated at 37 °C for 30 min. The PTP1B or SHP2 activity was measured by detecting the absorbance at 405 nm for the amount of produced p-nitrophenol.
as §2, §3, §4

PTPlB = biological target: T4, PTPlB (Homo sapiens, UniProt P18031); experiment: PTP1B activity assay (pNPP substrate); type: biochemical; conditions: human recombinant enzyme, read-out: IC50, inhibitory activity towards PTPlB
T4 construct: made in house; host or cells: E. coli
T4 sequence (P18031 1-435): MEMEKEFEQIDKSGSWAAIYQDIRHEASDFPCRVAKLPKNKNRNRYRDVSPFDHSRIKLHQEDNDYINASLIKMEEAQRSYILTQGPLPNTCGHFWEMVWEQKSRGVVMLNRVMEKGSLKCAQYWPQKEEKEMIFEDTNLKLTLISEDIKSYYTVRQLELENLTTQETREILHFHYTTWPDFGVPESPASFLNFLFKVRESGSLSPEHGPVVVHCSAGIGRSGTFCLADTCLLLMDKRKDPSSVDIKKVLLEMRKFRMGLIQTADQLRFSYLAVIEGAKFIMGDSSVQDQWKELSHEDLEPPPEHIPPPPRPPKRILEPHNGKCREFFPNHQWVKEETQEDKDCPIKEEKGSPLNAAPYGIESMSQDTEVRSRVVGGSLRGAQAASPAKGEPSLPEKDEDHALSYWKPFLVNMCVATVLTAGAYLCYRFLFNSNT

[1] = set-up: method as in doi:10.1016/j.tet.2009.02.054; conditions: previous studies ref 23; cited from earlier work

SMILES	IC50 (cathepsin B) [µM]	IC50 (IMPDH) [µM]	LC50/EC50 (Bugula neritina larvae)	IC50 (SHP2) [µM]	other results
Cc1c(O)c(C(=O)O)c(O)c2c1[C@H](C)[C@@H](C)OC2=O [Compound 4, dihydrocitrinone]	28.5 ± 1.7	–	–	–	–
Cc1c2c(c3oc4cc(=O)c(C)c5c-4c(c3c1O)O[C@H](C)[C@H]5C)O[C@H](C)[C@H]2C [Compound 6, dicitrinin A]	–	98.7 ± 6.2	> 56	58.4 ± 4	EC50 (Bugula neritina larvae): 1.76 ± 0.8 µg/mL (≈ 4.63 µM)
Cc1c([C@H](C)[C@@H](C)O)cc(O)c(C(=O)O)c1O [Compound 7, phenol A acid]	20.4 ± 1.9	–	> 15	–	EC50 (Bugula neritina larvae; 27 °C): 14.3 ± 1.72 µg/mL (≈ 59.7 µM)
O=C1C[C@@H](O)[C@@H](O)c2cccc(O)c21 [Compound 17, (3R,4S)-(+)-4-hydroxy-6-deoxyscytalone]	–	41.2 ± 3.6	–	4.1 ± 0.6	IC50 (PTPlB): 13.9 ± 1.8 µM; phytotoxicity (in words) [1]: phytotoxic substance
CC(=O)N[C@@H](CC(C)C)C(=O)N[C@@H](CC(C)C)C(=O)N[C@H](C=O)CCCNC(=N)N [leupeptin, reference compound]	0.03	–	–	–	–
C[C@H]1[C@H](C)CC[C@]2(C(=O)O)CC[C@]3(C)C(=CC[C@@H]4[C@@]5(C)CC[C@H](O)C(C)(C)[C@@H]5CC[C@]43C)[C@H]12 [ursolic acid, reference compound]	–	–	–	2.8	–
